Assay results taken from paper PMC5368959, “Uricosuric targets of tranilast” (Pharmacology Research & Perspectives, 2017).
pIC50: −log10 of the molar value. Where “and” joins values, the source holds several entries; their conditions need not be identical. Equal values may be shown once. Read-outs that look alike come from different tables or passages of the source.

Legend:
SMCT1 = target: T1, SMCT1 (Homo sapiens, UniProt Q8N695); assay: [14C]-nicotinate uptake by SMCT1-expressing Xenopus oocytes; assay type: cell-based; settings: for pIC50: data not shown, read-out: IC50, SMCT1-mediated [14C]-nicotinate uptake
T1 sequence (Q8N695 1-610): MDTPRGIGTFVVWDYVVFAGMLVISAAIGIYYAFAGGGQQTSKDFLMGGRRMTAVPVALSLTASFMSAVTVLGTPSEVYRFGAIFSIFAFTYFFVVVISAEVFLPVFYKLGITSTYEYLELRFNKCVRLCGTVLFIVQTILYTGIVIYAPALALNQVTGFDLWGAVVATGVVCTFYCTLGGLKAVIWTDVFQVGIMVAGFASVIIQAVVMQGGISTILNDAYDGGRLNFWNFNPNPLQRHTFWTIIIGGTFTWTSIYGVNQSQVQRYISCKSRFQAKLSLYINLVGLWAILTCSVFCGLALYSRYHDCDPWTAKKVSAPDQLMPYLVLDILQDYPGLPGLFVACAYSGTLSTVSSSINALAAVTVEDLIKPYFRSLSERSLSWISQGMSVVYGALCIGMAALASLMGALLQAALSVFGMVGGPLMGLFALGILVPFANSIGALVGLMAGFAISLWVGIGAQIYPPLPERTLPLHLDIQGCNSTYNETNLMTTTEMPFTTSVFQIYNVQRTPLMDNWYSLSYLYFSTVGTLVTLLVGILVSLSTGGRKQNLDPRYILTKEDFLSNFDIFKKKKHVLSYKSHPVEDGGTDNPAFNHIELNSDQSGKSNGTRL
Method: (§1) For uptake experiments, oocytes were washed four times with ND96 medium (pH 7.4) without pyruvate and gentamycin.
(§2) Chloride ion‐dependence was also assessed; in 0 Cl^− bath, NaCl was replaced by Na‐gluconate (Na‐Gluc), KCl by K‐gluconate (K‐Gluc), MgCl2 by Mg‐gluconate, and CaCl2 by Ca‐gluconate. […] Data are mean ± S.E. with n = 12–15.

OAT10 = OAT10 (Homo sapiens, UniProt Q9Y226); assay: [14C]-nicotinate uptake by OAT10-expressing Xenopus oocytes; assay type: cell-based; settings: for Inhibition of OAT10 [14C]-nicotinate uptake: drug 100 μmol/L
Method: as §1, §2

OAT1 = target: T2, OAT1 (Homo sapiens, UniProt Q4U2R8); assay: [14C]-urate uptake by OAT1-expressing Xenopus oocytes; assay type: cell-based; settings: drug 100 μmol/L
T2 sequence (Q4U2R8 1-563): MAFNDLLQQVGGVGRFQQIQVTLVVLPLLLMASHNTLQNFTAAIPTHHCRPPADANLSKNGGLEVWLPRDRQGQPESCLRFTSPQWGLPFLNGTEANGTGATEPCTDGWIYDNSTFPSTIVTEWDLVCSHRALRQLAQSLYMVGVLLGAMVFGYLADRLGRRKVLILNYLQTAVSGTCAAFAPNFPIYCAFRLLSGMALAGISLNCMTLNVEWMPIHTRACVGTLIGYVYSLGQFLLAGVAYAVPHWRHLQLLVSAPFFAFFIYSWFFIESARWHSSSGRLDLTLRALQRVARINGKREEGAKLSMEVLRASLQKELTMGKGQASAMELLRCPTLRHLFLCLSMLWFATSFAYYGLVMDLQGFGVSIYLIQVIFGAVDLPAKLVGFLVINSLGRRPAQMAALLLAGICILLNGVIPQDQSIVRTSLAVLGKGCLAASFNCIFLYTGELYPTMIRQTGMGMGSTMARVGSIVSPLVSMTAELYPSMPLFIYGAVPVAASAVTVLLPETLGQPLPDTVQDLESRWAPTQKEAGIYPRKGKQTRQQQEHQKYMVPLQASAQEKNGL
Text: as §1

URAT1 = target: T3, URAT1 (Homo sapiens, UniProt Q96S37); assay: [14C]-nicotinate uptake by URAT1-expressing Xenopus oocytes; assay type: cell-based
T3 sequence (Q96S37 1-553): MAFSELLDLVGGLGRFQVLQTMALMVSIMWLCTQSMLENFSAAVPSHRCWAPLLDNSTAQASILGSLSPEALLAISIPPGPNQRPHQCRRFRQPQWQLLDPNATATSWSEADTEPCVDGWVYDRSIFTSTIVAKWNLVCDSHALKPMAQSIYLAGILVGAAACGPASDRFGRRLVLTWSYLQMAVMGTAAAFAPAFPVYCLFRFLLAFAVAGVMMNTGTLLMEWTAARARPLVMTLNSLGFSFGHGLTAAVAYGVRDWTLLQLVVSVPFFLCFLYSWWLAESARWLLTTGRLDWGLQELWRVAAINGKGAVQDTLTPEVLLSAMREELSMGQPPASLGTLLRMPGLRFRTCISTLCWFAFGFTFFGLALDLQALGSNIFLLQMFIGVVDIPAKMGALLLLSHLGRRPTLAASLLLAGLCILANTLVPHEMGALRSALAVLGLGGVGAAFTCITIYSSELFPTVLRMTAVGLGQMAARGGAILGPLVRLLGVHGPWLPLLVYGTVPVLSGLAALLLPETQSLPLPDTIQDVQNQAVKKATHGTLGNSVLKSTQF
Text: as §1
Data are mean ± S.E. with n = 12–15.

[1] = set-up: method as in Sundy and Kitt 2010; settings: at least partially due to uricosuric effects; ref Sundy and Kitt 2010; cited from earlier work
[2] = tested on: inflammation induced by monosodium urate (MSU) crystals; set-up: method as in Serafini and Emerling 2010; settings: ref Serafini and Emerling 2010; cited from earlier work
[3] = PZA-preloaded oocytes, read-out: IC50, OAT10-mediated [14C]-nicotinate/PZA exchange

Sequence of OAT10 (Q9Y226 whole entry): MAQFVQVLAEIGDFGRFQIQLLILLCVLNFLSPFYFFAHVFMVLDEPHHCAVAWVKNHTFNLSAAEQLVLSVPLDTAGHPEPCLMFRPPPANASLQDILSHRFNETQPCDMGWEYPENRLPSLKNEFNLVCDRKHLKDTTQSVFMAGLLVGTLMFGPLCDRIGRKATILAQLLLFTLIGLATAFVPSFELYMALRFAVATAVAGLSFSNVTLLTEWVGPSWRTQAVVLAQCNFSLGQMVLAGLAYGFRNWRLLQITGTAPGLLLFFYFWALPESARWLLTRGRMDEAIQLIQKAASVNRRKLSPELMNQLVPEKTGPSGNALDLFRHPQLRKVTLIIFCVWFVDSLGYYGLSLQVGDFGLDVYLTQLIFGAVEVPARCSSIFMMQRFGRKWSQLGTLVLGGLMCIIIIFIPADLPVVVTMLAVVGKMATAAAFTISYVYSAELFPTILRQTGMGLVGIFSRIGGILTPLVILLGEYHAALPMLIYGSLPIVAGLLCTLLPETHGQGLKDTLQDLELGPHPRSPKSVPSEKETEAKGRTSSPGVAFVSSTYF

With `CCc1oc2ccccc2c1C(=O)c1cc(Br)c(O)c(Br)c1` [benzbromarone] the pIC50 (SMCT1) was about 4.30, the pIC50 (OAT10; [3]) was about 4.64 and the “Inhibition of OAT10 [14C]-nicotinate uptake” value (OAT10) was “inhibited”. The “Inhibition of OAT1-mediated urate uptake” value (OAT1) was “effectively inhibited”.

For `CCCN(CCC)S(=O)(=O)c1ccc(C(=O)O)cc1` [probenecid], the “Inhibition of SMCT1 nicotinate uptake” value (SMCT1; drug 1.0 mmol/L) was “significantly inhibited” and the “Sensitivity of URAT1-mediated [14C]-nicotinate uptake to drug” value (URAT1; data not shown) was “very sensitive”.

In the case of `COc1ccc(C=CC(=O)Nc2ccccc2C(=O)O)cc1OC` [tranilast, N‐(3,4‐dimethoxycinnamoyl) anthranilic acid], the “Effect on SUA in healthy human subjects” value [1] is listed as “potent reduction in SUA”, the “Effect on inflammation induced by MSU crystals in vivo” value [2] is listed as “suppresses inflammation” and the pIC50 (SMCT1) is listed as ~2.96 and < 3.73. For the same compound, the pIC50 (OAT10; [3]) was about 4.37, the “Inhibition of OAT10 [14C]-nicotinate uptake” value (OAT10) was “inhibited” and the pIC50 (OAT10; without preloading, data not shown, read-out: IC50, OAT10-mediated [14C]-nicotinate uptake) was about 4.38. For the same compound, the pIC50 (URAT1; PZA-preloaded oocytes, 40 μmol/L nicotinate, read-out: IC50, URAT1-mediated [14C]-nicotinate uptake ([14C]-nicotinate/PZA exchange)) was ~3.72 and 3.72 and < 3.73 and the “Inhibition of OAT1-mediated urate uptake” value (OAT1) was “effectively inhibited”.
